*1 amine or outer side, *2 acyl side, *3 side chain or, on linkers, in order; H or OH if unused. Where a SMILES comes first, the peptide text is derived from it. Side-chain parts run from the residue outwards. [ ]: non-standard residue; d: D form. The star is where a group is joined. C20 diacid = O=C(O)CCCCCCCCCCCCCCCCCCC(=O)*; C18 diacid = O=C(O)CCCCCCCCCCCCCCCCC(=O)*; γGlu = O=C(O)[C@H](CCC(=O)[*:2])N[*:1]; AEEA = NCCOCCOCC(=O)O; Aib = CC(C)(N)C(=O)O
Key:
[1] = target: T1, human glucose-dependent insulinotropic peptide receptor (GIPR) (Homo sapiens, UniProt P48546); experiment: cAMP functional assay (HTRF) in HEK293 cells in presence of 0.1% casein; type: cell-based; settings: HEK293 cells expressing human GIPR, geometric mean, read-out: hGIPR cAMP Rel EC50 nM (SEM, n)
T1 construct: expressed in transfected cells; host or cells: HEK293
T1 sequence (P48546 22-466): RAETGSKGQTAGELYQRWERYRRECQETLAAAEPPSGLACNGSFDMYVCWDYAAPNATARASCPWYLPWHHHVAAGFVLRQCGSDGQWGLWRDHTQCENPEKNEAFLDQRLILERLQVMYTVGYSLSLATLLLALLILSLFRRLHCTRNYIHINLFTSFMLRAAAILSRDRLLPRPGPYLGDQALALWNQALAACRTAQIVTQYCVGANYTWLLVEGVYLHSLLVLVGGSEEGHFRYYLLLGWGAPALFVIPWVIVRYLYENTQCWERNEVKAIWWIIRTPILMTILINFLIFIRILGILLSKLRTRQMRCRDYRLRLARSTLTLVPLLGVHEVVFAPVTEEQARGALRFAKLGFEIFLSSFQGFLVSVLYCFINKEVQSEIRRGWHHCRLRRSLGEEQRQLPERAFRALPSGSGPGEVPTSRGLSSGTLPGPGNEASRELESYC

[2] = target: T2, human glucagon receptor (GcgR) (Homo sapiens, UniProt P47871); experiment: as above; type: cell-based; settings: HEK293 cells expressing human GcgR, geometric mean, read-out: hGcgR cAMP Rel EC50 nM (SEM, n)
T2 construct: expressed in transfected cells; host or cells: HEK293
T2 sequence (P47871 26-477): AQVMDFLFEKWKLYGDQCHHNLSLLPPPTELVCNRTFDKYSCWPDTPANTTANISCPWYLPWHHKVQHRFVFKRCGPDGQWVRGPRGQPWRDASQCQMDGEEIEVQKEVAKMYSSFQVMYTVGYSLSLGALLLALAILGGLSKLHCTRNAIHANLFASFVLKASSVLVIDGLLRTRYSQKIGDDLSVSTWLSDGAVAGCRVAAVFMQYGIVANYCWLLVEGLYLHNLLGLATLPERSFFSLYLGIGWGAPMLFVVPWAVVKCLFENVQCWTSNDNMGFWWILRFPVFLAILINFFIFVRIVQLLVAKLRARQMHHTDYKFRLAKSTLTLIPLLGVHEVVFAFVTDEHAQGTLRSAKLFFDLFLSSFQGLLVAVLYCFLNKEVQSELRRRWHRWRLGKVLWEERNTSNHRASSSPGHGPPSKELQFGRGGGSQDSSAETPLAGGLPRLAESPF

For CC[C@H](C)[C@H](NC(=O)[C@H](CO)NC(=O)[C@H](Cc1ccc(O)cc1)NC(=O)[C@H](CC(=O)O)NC(=O)[C@H](CO)NC(=O)[C@@H](NC(=O)[C@H](Cc1ccccc1)NC(=O)[C@@H](NC(=O)CNC(=O)[C@H](CCC(=O)O)NC(=O)[C@@H](C)NC(=O)[C@@H](N)Cc1ccc(O)cc1)[C@@H](C)O)[C@@H](C)CC)C(=O)N[C@@H](CC(C)C)C(=O)N[C@@H](CC(C)C)C(=O)N[C@@H](CC(=O)O)C(=O)N[C@@H](CCCCN)C(=O)N[C@@H](CCCCNC(=O)COCCOCCNC(=O)COCCOCCNC(=O)CC[C@H](NC(=O)CCCCCCCCCCCCCCCCCCC(=O)O)C(=O)O)C(=O)N[C@@H](Cc1c[nH]cn1)C(=O)N[C@@H](CCC(N)=O)C(=O)N[C@@H](CCC(N)=O)C(=O)N[C@@H](CCC(=O)O)C(=O)N[C@@H](Cc1ccccc1)C(=O)N[C@H](C(=O)N[C@@H](CC(N)=O)C(=O)N[C@@H](Cc1c[nH]c2ccccc12)C(=O)N[C@@H](CC(C)C)C(=O)N[C@@H](CC(C)C)C(=O)N[C@@H](C)C(=O)N[C@@H](CCC(N)=O)C(=O)NCC(=O)N1CCC[C@H]1C(=O)N[C@@H](CO)C(=O)N[C@@H](CO)C(=O)NCC(=O)N[C@@H](C)C(=O)N1CCC[C@H]1C(=O)N1CCC[C@H]1C(=O)N1CCC[C@H]1C(=O)N[C@@H](CO)C(N)=O)C(C)C [Example 13] (H-Y[dA]EGTFISDYSILLDKK([AEEA-AEEA-γGlu-C20 diacid])HQQEFVNWLLAQGPSSGAPPPS-NH2), the EC50 [1] was 0.129 nM and the EC50 [2] was > 5000 nM.
CC[C@H](C)[C@H](NC(=O)[C@H](CO)NC(=O)[C@H](Cc1ccc(O)cc1)NC(=O)[C@H](CC(=O)O)NC(=O)[C@H](CO)NC(=O)[C@@H](NC(=O)[C@H](Cc1ccccc1)NC(=O)[C@@H](NC(=O)CNC(=O)[C@H](CCC(=O)O)NC(=O)[C@@H](C)NC(=O)[C@@H](N)Cc1ccc(O)cc1)[C@@H](C)O)[C@@H](C)CC)C(=O)N[C@@H](CC(C)C)C(=O)N[C@@H](CC(C)C)C(=O)N[C@@H](CC(=O)O)C(=O)N[C@@H](CCCCN)C(=O)N[C@@H](CCCCNC(=O)COCCOCCNC(=O)COCCOCCNC(=O)CC[C@H](NC(=O)CCCCCCCCCCCCCCCCCCC(=O)O)C(=O)O)C(=O)N[C@@H](Cc1c[nH]cn1)C(=O)N[C@@H](CCC(N)=O)C(=O)N[C@@H](CCC(N)=O)C(=O)N[C@@H](CC(=O)O)C(=O)N[C@@H](Cc1ccccc1)C(=O)N[C@H](C(=O)N[C@@H](CCC(=O)O)C(=O)N[C@@H](Cc1c[nH]c2ccccc12)C(=O)N[C@@H](CC(C)C)C(=O)N[C@@H](CC(C)C)C(=O)N[C@@H](C)C(=O)N[C@@H](CCC(N)=O)C(=O)NCC(=O)N1CCC[C@H]1C(=O)N[C@@H](CO)C(=O)N[C@@H](CO)C(=O)NCC(=O)N[C@@H](C)C(=O)N1CCC[C@H]1C(=O)N1CCC[C@H]1C(=O)N1CCC[C@H]1C(=O)N[C@@H](CO)C(N)=O)C(C)C [Example 14] (H-Y[dA]EGTFISDYSILLDKK([AEEA-AEEA-γGlu-C20 diacid])HQQDFVEWLLAQGPSSGAPPPS-NH2) was tested, and the EC50 [1] was 0.34 nM and the EC50 [2] was > 5000 nM.
For CC[C@H](C)[C@H](NC(=O)[C@H](CO)NC(=O)[C@H](Cc1ccc(O)cc1)NC(=O)[C@H](CC(=O)O)NC(=O)[C@H](CO)NC(=O)[C@@H](NC(=O)[C@H](Cc1ccccc1)NC(=O)[C@@H](NC(=O)CNC(=O)[C@H](CCC(=O)O)NC(=O)[C@@H](C)NC(=O)[C@@H](N)Cc1ccc(O)cc1)[C@@H](C)O)[C@@H](C)CC)C(=O)N[C@@H](CC(C)C)C(=O)N[C@@H](CC(C)C)C(=O)N[C@@H](CC(=O)O)C(=O)N[C@@H](CCCCN)C(=O)N[C@@H](CCCCNC(=O)COCCOCCNC(=O)COCCOCCNC(=O)CC[C@H](NC(=O)CCCCCCCCCCCCCCCCCCC(=O)O)C(=O)O)C(=O)N[C@@H](Cc1c[nH]cn1)C(=O)N[C@@H](CCC(N)=O)C(=O)N[C@@H](CCC(N)=O)C(=O)N[C@@H](CC(=O)O)C(=O)N[C@@H](Cc1ccccc1)C(=O)N[C@H](C(=O)N[C@@H](CC(N)=O)C(=O)N[C@@H](Cc1ccc(O)cc1)C(=O)N[C@@H](CC(C)C)C(=O)N[C@@H](CC(C)C)C(=O)N[C@@H](C)C(=O)N[C@@H](CCC(N)=O)C(=O)NCC(=O)N1CCC[C@H]1C(=O)N[C@@H](CO)C(=O)N[C@@H](CO)C(=O)NCC(=O)N[C@@H](C)C(=O)N1CCC[C@H]1C(=O)N1CCC[C@H]1C(=O)N1CCC[C@H]1C(=O)N[C@@H](CO)C(N)=O)C(C)C [Example 15] (H-Y[dA]EGTFISDYSILLDKK([AEEA-AEEA-γGlu-C20 diacid])HQQDFVNYLLAQGPSSGAPPPS-NH2), the EC50 [1] was 0.282 nM and the EC50 [2] was > 5000 nM.
With CC[C@H](C)[C@H](NC(=O)[C@H](CO)NC(=O)[C@H](Cc1ccc(O)cc1)NC(=O)[C@H](CC(=O)O)NC(=O)[C@H](CO)NC(=O)[C@@H](NC(=O)[C@H](Cc1ccccc1)NC(=O)[C@@H](NC(=O)CNC(=O)[C@H](CCC(=O)O)NC(=O)[C@@H](C)NC(=O)[C@@H](N)Cc1ccc(O)cc1)[C@@H](C)O)[C@@H](C)CC)C(=O)N[C@@H](CC(C)C)C(=O)N[C@@H](CC(C)C)C(=O)N[C@@H](CC(=O)O)C(=O)N[C@@H](CCCCN)C(=O)N[C@@H](CCCCNC(=O)COCCOCCNC(=O)COCCOCCNC(=O)CC[C@H](NC(=O)CCCCCCCCCCCCCCCCC(=O)O)C(=O)O)C(=O)N[C@@H](C)C(=O)N[C@@H](CCC(N)=O)C(=O)NC(C)(C)C(=O)N[C@@H](CC(=O)O)C(=O)N[C@@H](Cc1ccccc1)C(=O)N[C@H](C(=O)N[C@@H](CCC(=O)O)C(=O)N[C@@H](Cc1c[nH]c2ccccc12)C(=O)N[C@@H](CC(C)C)C(=O)N[C@@H](CC(C)C)C(=O)N[C@@H](C)C(=O)N[C@@H](CCC(N)=O)C(=O)NCC(=O)N1CCC[C@H]1C(=O)N[C@@H](CO)C(=O)N[C@@H](CO)C(=O)NCC(=O)N[C@@H](C)C(=O)N1CCC[C@H]1C(=O)N1CCC[C@H]1C(=O)N1CCC[C@H]1C(=O)N[C@@H](CO)C(N)=O)C(C)C [Example 16] (H-Y[dA]EGTFISDYSILLDKK([AEEA-AEEA-γGlu-C18 diacid])AQ[Aib]DFVEWLLAQGPSSGAPPPS-NH2) the EC50 [1] was 0.00937 nM and the EC50 [2] was > 5000 nM.
For CC[C@H](C)[C@H](NC(=O)[C@H](CO)NC(=O)[C@H](Cc1ccc(O)cc1)NC(=O)[C@H](CC(=O)O)NC(=O)[C@H](CO)NC(=O)[C@@H](NC(=O)[C@H](Cc1ccccc1)NC(=O)[C@@H](NC(=O)CNC(=O)[C@H](CCC(=O)O)NC(=O)[C@@H](C)NC(=O)[C@@H](N)Cc1ccc(O)cc1)[C@@H](C)O)[C@@H](C)CC)C(=O)N[C@@H](CC(C)C)C(=O)N[C@@H](CC(C)C)C(=O)N[C@@H](CC(=O)O)C(=O)N[C@@H](CCCCN)C(=O)N[C@@H](CCCCNC(=O)COCCOCCNC(=O)COCCOCCNC(=O)CC[C@H](NC(=O)CCCCCCCCCCCCCCCCC(=O)O)C(=O)O)C(=O)N[C@@H](C)C(=O)N[C@@H](CCC(N)=O)C(=O)NC(C)(C)C(=O)N[C@@H](CC(=O)O)C(=O)N[C@@H](Cc1ccccc1)C(=O)N[C@H](C(=O)N[C@@H](CC(N)=O)C(=O)N[C@@H](Cc1c[nH]c2ccccc12)C(=O)N[C@@H](CC(C)C)C(=O)N[C@@H](CC(C)C)C(=O)N[C@@H](CCC(=O)O)C(=O)N[C@@H](CCC(N)=O)C(=O)NCC(=O)N1CCC[C@H]1C(=O)N[C@@H](CO)C(=O)N[C@@H](CO)C(=O)NCC(=O)N[C@@H](C)C(=O)N1CCC[C@H]1C(=O)N1CCC[C@H]1C(=O)N1CCC[C@H]1C(=O)N[C@@H](CO)C(N)=O)C(C)C [Example 17] (H-Y[dA]EGTFISDYSILLDKK([AEEA-AEEA-γGlu-C18 diacid])AQ[Aib]DFVNWLLEQGPSSGAPPPS-NH2), the EC50 [1] was 0.0135 nM and the EC50 [2] was > 5000 nM.

— patent US12723063B2, “GIPR-agonist compounds” (Eli Lilly and Company, priority 2019, dated 2026)
